Source: patent publication US4146721A, “Pyrazol-4-acetic acid compounds” (priority 1970, dated 1979)
Read-outs that look alike come from different tables or passages of the source.

How the values were obtained:
[1] = tested on: Carrageenin edema of the rear paw of the rat; test: Carrageenin edema of the rear paw (antiphlogistic effect); assay type: in vivo; conditions: for Retardation of the Carrageenin Edema, Relative Effect: Phenylbutazon = 1.0; for ED40: read-out: Retardation of the Carrageenin Edema by 40% by mg/kg oral
in vivo = conditions: mouse, ip
Protocol: (§2) ^3) Dose, at which 50% of the animals died within 72 hours after
administration of the substance

[2] = tested on: ultraviolet erythema of the skin on the back of the guinea pig; test: Ultraviolet erythema of the skin on the back (antiphlogistic effect); assay type: in vivo; conditions: for ED50: Cavia porcellus, read-out: Retardation of the UV-Erythema by 50% by mg/kg oral; for Retardation of the UV-Erythema, Relative Effect: Phenylbutazon = 1.0
mouse [3] = test: Analgesic effect: delay in the defense reaction of the mouse upon thermal stimulation of the root of the tail by a heat beam; assay type: in vivo; conditions: oral; for ED20 / ED40: Mus musculus; for ED20: mean delay in defense reaction by 20% during 2 hours; for ED40: mean delay in defense reaction by 40% during 2 hours; for ED20 Relative / ED40 Relative: relative to aminophenazone
Protocol: (§1) The analgesic effect is measured as the mean delay in the defense reaction of the mouse by 20% (ED20) and 40% (ED40) during 2 hours upon thermal stimulation of the root of the tail by a heat beam relative to aminophenazone.

[4] = as above; assay type: in vivo; conditions: mouse, in vivo; LD5 I.P. / ED40 oral; read-out: Therapeutic Index LD5/ED40
Protocol: as §1

mouse [5] = conditions: Table II; I.P.
Protocol: as §2
administration of the substance

rat = test: Lowering of the normal temperature of the rat; assay type: in vivo; conditions: for ED (15 degC temperature lowering): ip, read-out: dose i.p. that lowered the normal temperature of the rat by 15.° C.
Protocol: In addition thereto, the new pyrazole compounds of the invention effect a lowering of the temperature in mammalians: 60 mg/kg of compound A and 25 mg/kg of compound L, administered i.p. to the rat lowered the normal temperature of the rat by 15.° C.

[6] = cited from earlier work
[7] = rat, oral, dose for 40% retardation
[8] = Toxicity LD50 after a single dose in the mouse, Table I, i.p., 50% of the animals died within 72 hours
[9] = guinea pig, oral, dose for 50% retardation
[10] = rat, lowering by 15.° C. (so in the source)

COc1ccc(-n2nc(C)c(CC(=O)O)c2C)cc1 [F, 3,5-dimethyl-1-(p-methoxyphenyl)-pyrazol-4-acetic acid]
Retardation of the Carrageenin Edema, Relative Effect ([1]; rat, oral): 0.6
ED40 [1, 7]: 50 mg/kg
LD50 at 72 h (in vivo; [8]): 1000 mg/kg

O=C(O)Cc1cn(-c2ccccc2)nc1-c1ccc(Cl)cc1 [D, 1-phenyl-3-(p-chlorophenyl)-pyrazol-4-acetic acid]
ED40 [1, 7]: 2.5 mg/kg
ED50 [2, 9]: 3 mg/kg

O=C(O)Cc1c(-c2ccc(Cl)cc2)nn(-c2ccccc2)c1-c1ccc(Cl)cc1 [M, 1-phenyl-3,5-bis-(p-chlorophenyl)-pyrazol-4-acetic acid]
LD50 at 72 h (in vivo; LD50, Table II, I.P.): 51 mg/kg
ED20 (mouse [3]): 7 mg/kg
ED40 (mouse [3]): 20 mg/kg
ED20 Relative (mouse [3]): 7.1
ED40 Relative (mouse [3]): 7.0
selectivity ratio [4]: 1.9
LD5 (mouse [5]): 38 mg/kg

CC(C(=O)O)c1c(-c2ccccc2)nn(-c2ccccc2)c1-c1ccccc1 (stereo not drawn) [H, α-methyl-1,3,5-triphenyl-pyrazol-4-acetic acid]
Retardation of the Carrageenin Edema, Relative Effect ([1]; rat, oral): 1.0
ED40 [1, 7]: 30 mg/kg
LD50 at 72 h (in vivo; [8]): 199 mg/kg
ED50 [2, 9]: 5 mg/kg
Retardation of the UV-Erythema, Relative Effect ([2]; guinea pig, oral): 3.2

Cc1nn(-c2ccccc2)c(C)c1CC(N)=O [P, 3,5-dimethyl-1-phenyl-pyrazol-4-acetamide]
LD50 at 72 h (in vivo; LD50, Table II, I.P.): 500 mg/kg
ED20 (mouse [3]): 50 mg/kg
ED40 (mouse [3]): 150 mg/kg
ED20 Relative (mouse [3]): 1.0
ED40 Relative (mouse [3]): 0.9
selectivity ratio [4]: 3.3
LD5 (mouse [5]): 500 mg/kg

Cc1nn(-c2ccccc2)c(C)c1CC#N [Q, 3,5-dimethyl-1-phenyl-pyrazol-4-acetonitrile]
ED20 (mouse [3]): 20 mg/kg
ED40 (mouse [3]): 40 mg/kg
ED20 Relative (mouse [3]): 2.5
ED40 Relative (mouse [3]): 3.5

O=C(O)Cc1c(-c2ccco2)nn(-c2ccccc2)c1-c1ccco1 [B, 1-phenyl-3,5-di-(2-furyl)-pyrazol-4-acetic acid]
Retardation of the Carrageenin Edema, Relative Effect ([1]; rat, oral): 3.0
ED40 [1, 7]: 10 mg/kg
LD50 at 72 h (in vivo; LD50, Table II, I.P.): 373 mg/kg
LD50 at 72 h (in vivo; [8]): 370 mg/kg
ED20 (mouse [3]): 10 mg/kg
ED40 (mouse [3]): 50 mg/kg
ED20 Relative (mouse [3]): 5.0
ED40 Relative (mouse [3]): 2.8
selectivity ratio [4]: 3.8
ED50 [2, 9]: 1.5 mg/kg
Retardation of the UV-Erythema, Relative Effect ([2]; guinea pig, oral): 10.7
LD5 (mouse [5]): 190 mg/kg

O=C(O)Cc1c(-c2ccccc2)nn(-c2ccccc2)c1-c1ccccc1 [A, 1,3,5-triphenyl-pyrazol-4-acetic acid]
Retardation of the Carrageenin Edema, Relative Effect ([1]; rat, oral): 6.0
ED40 ([1]; Rattus norvegicus, po): 5 mg/kg
lowering of the normal temperature of the rat (rat; 60 mg/kg i.p.): 15. ° C.
ED (15 degC temperature lowering) (rat; Rattus norvegicus): 60 mg/kg
LD50 at 72 h (in vivo): 312 mg/kg
ED50 ([2]; po): 3 mg/kg
Retardation of the UV-Erythema, Relative Effect ([2]; guinea pig, oral): 5.3

Cc1nn(-c2ccccc2)c(-c2ccccc2)c1CC(=O)O [G, 3-methyl-1,5-diphenyl-pyrazol-4-acetic acid]
LD50 at 72 h (in vivo; [8]): 500 mg/kg
ED50 [2, 9]: 20 mg/kg
Retardation of the UV-Erythema, Relative Effect ([2]; guinea pig, oral): 0.8

O=C(O)Cc1cnn(-c2ccccc2)c1-c1ccc(Cl)cc1 [I, 1-phenyl-5-(p-chlorophenyl)-pyrazol-4-acetic acid]
LD50 at 72 h (in vivo; LD50, Table II, I.P.): 279 mg/kg
ED20 (mouse [3]): 50 mg/kg
ED40 (mouse [3]): 70 mg/kg
ED20 Relative (mouse [3]): 1.0
ED40 Relative (mouse [3]): 2.0
selectivity ratio [4]: 2.6
LD5 (mouse [5]): 180 mg/kg

CCCCn1nc(C)c(CC(=O)O)c1C [E, 3,5-dimethyl-1-n-butyl-pyrazol-4-acetic acid]
Retardation of the Carrageenin Edema, Relative Effect ([1]; rat, oral): 0.6
ED40 [1, 7]: 50 mg/kg
LD50 at 72 h (in vivo; [8]): 1400 mg/kg

CCCCC1C(=O)N(c2ccccc2)N(c2ccccc2)C1=O [Phenylbutazon, reference compound]
ED40 [1, 7]: 30 mg/kg
ED20 (mouse [3]): 150 mg/kg
ED50 [2, 9]: 16 mg/kg

COc1ccc(-c2nn(-c3ccccc3)cc2CC#N)cc1 [R, 1-phenyl-3-(p-methoxyphenyl)-pyrazol-4-acetonitrile]
ED20 (mouse [3]): 50 mg/kg
ED40 (mouse [3]): 80 mg/kg
ED20 Relative (mouse [3]): 1.0
ED40 Relative (mouse [3]): 1.8

O=C(O)Cc1c(-c2ccccc2)nn(-c2ccc(Cl)cc2)c1-c1ccccc1 [L, 3,5-diphenyl-1-(p-chlorophenyl)-pyrazol-4-acetic acid]
lowering of the normal temperature of the rat (rat; 25 mg/kg i.p.): 1.5 ° C
ED (15 degC temperature lowering) (rat; [10]): 25 mg/kg
LD50 at 72 h (in vivo; LD50, Table II, I.P.): ~80 mg/kg
ED20 (mouse [3]): 15 mg/kg
ED40 (mouse [3]): 55 mg/kg
ED20 Relative (mouse [3]): 3.3
ED40 Relative (mouse [3]): 2.5

CCCCn1nc(-c2ccccc2)c(CC(=O)O)c1-c1ccccc1 [K, 1-n-butyl-3,5-diphenyl-pyrazol-4-acetic acid]
LD50 at 72 h (in vivo; LD50, Table II, I.P.): 430 mg/kg
ED20 (mouse [3]): 20 mg/kg
ED40 (mouse [3]): 80 mg/kg
ED20 Relative (mouse [3]): 2.5
ED40 Relative (mouse [3]): 1.8
selectivity ratio [4]: 4.5
LD5 (mouse [5]): 360 mg/kg

COc1ccc2c(c1)c(CC(=O)O)c(C)n2C(=O)c1ccc(Cl)cc1 [Indomethacin, 2-methyl-5-methoxy-1-(p-chlorobenzoyl)-indol-3-acetic acid, reference compound]
Retardation of the Carrageenin Edema, Relative Effect ([1]; rat, oral): 7.5
ED40 ([1]; Rattus norvegicus, po): 4 mg/kg
LD50 at 72 h (in vivo): 45 mg/kg
ED50 ([2]; po): 20 mg/kg
Retardation of the UV-Erythema, Relative Effect ([2]; guinea pig, oral): 0.8
side effects ([6]; Chem. Eng. News 46 (1968)): many undesirable side effects
antiphlogistic, analgesic and antipyretic effectiveness compared with 4-n-butyl-1,2-diphenyl-3,5-dioxopyracoline ([6]; J. Am. Chem. So. 85, 488 (1963)): surpassing in this respect the effectiveness

CCOC(=O)Cc1c(-c2ccccc2)nn(-c2cccc(C(F)(F)F)c2)c1-c1ccccc1 [O, 3,5-diphenyl-1-(α,α,α-trifluoro-m-tolyl)-pyrazol-4-acetic acid-ethyl ester]
ED20 (mouse [3]): 50 mg/kg
ED40 (mouse [3]): 70 mg/kg
ED20 Relative (mouse [3]): 1.0
ED40 Relative (mouse [3]): 2.0

O=C(O)Cc1c(-c2ccccc2)nn(-c2cccnc2)c1-c1ccccc1 [C, 3,5-diphenyl-1-(3-pyridyl)-pyrazol-4-acetic acid]
Retardation of the Carrageenin Edema, Relative Effect ([1]; rat, oral): 1.5
ED40 [1, 7]: 20 mg/kg
LD50 at 72 h (in vivo; [8]): 1150 mg/kg
ED50 [2, 9]: 2.5 mg/kg
Retardation of the UV-Erythema, Relative Effect ([2]; guinea pig, oral): 6.4

Cc1c(N(C)C)c(=O)n(-c2ccccc2)n1C [Aminophenazone, reference compound]
ED (15 degC temperature lowering) (rat; [10]): 70 mg/kg
LD50 at 72 h (in vivo): 330 mg/kg
ED20 (mouse [3]): 50 mg/kg
ED40 (mouse [3]): 140 mg/kg
selectivity ratio [4]: 1.9
LD5 (mouse [5]): 270 mg/kg

COc1cccc(-c2nn(-c3ccccc3)c(-c3cccc(OC)c3)c2CC(=O)O)c1 [N, 1-phenyl-3,5-bis-(m-methoxyphenyl)-pyrazol-4-acetic acid]
LD50 at 72 h (in vivo; LD50, Table II, I.P.): 312 mg/kg
ED20 (mouse [3]): 30 mg/kg
ED40 (mouse [3]): 55 mg/kg
ED20 Relative (mouse [3]): 1.7
ED40 Relative (mouse [3]): 2.5
selectivity ratio [4]: 3.6
LD5 (mouse [5]): 200 mg/kg
